For 16 compounds, pest or weed control results are on record in US10251394B2, “Molecules having pesticidal utility, and intermediates, compositions, and processes, related thereto” (Dow AgroSciences LLC, priority 2016, dated 2019).

Assay [1] has as its system Beet Armyworm (Spodoptera exigua). The assay is described as follows: Bioassay on Beet Armyworm (BAW), 128-well diet tray assay. Type of assay: in vivo. The following applies: Beet Armyworm, Table ABC, read-out: BAW rating. The method, then: (§1) Example A: Bioassays on Beet Armyworm (Spodoptera Exigua, LAPHEG) (“BAW”), Corn Earworm (Helicoverpa Zea, HELIZE) (“CEW”), and Cabbage Looper (Trichoplusia Ni, TRIPNI) (“CL”)
(§2) Certain molecules disclosed in this document were tested against BAW, CEW, and CL using procedures described in the following examples. In the reporting of the results, the “BAW, CEW, & CL Rating Table” was used (See Table Section).
Bioassays on BAW were conducted using a 128-well diet tray assay. One to five second instar BAW larvae were placed in each well (3 mL) of the diet tray that had been previously filled with 1 mL of artificial diet to which 50 μg/cm^2 of the test molecule (dissolved in 50 μL of 90:10 acetone-water mixture) had been applied (to each of eight wells) and then allowed to dry. Trays were covered with a clear self-adhesive cover and held at 25° C., 14:10 light-dark for five to seven days. Percent mortality was recorded for the larvae in each well; activity in the eight wells was then averaged. The results are indicated in the table entitled “Table ABC: Biological Results” (See Table Section).
(§3) Bioassays on BAW and CL were conducted according to the procedures outlined in Example A: Bioassays on Beet Armyworm (“BAW”) and Cabbage Looper (“CL”) using the indicated concentrations.

For assay [2], the system named is Cabbage Looper (Trichoplusia ni). The assay is described as follows: Bioassay on Cabbage Looper (CL), 128-well diet tray assay. Type of assay: in vivo. Conditions: Cabbage Looper, Table ABC, read-out: CL rating. The method, then: as §1, §2
Bioassays on CL were conducted using a 128-well diet tray assay. One to five second instar CL larvae were placed in each well (3 mL) of the diet tray that had been previously filled with 1 mL of artificial diet to which 50 μg/cm^2 of the test molecule (dissolved in 50 μL of 90:10 acetone-water mixture) had been applied (to each of eight wells) and then allowed to dry. Trays were covered with a clear self-adhesive cover and held at 25° C., 14:10 light-dark for five to seven days. Percent mortality was recorded for the larvae in each well; activity in the eight wells was then averaged. The results are indicated in the table entitled “Table ABC: Biological Results” (See Table Section).
as §3

Regarding `CCN(CC(F)(F)F)C(=O)[C@@H](C)NC(=O)c1ccc(/C(F)=C/C(c2cc(Cl)c(Cl)c(Cl)c2)C(F)(F)F)cc1Br` (stereo partly drawn) [F25, 2-Bromo-N—((R)-1-(ethyl(2,2,2-trifluoroethyl)amino)-1-oxopropan-2-yl)-4-((Z)-1,4,4,4-tetrafluoro-3-(3,4,5-trichlorophenyl)but-1-en-1-yl)benzamide], the pest or weed control at 50 µg/cm2 in assay [1] and in assay [2] was 50 to 100% each time.

Regarding `Cc1cc(/C(F)=C/C(c2cc(Cl)c(Cl)c(Cl)c2)C(C)(F)F)ccc1C(=O)N[C@H](C)C(=O)NCC(F)(F)F` (stereo partly drawn) [F26, 2-Methyl-N—((R)-1-oxo-1-((2,2,2-trifluoroethyl)amino)propan-2-yl)-4-((Z)-1,4,4-trifluoro-3-(3,4,5-trichlorophenyl)pent-1-en-1-yl)benzamide], the pest or weed control at 50 µg/cm2 in assay [1] and in assay [2] was 50 to 100% throughout.

With `C=CCON(CC(F)(F)F)C(=O)[C@@H](C)NC(=O)c1ccc(/C(F)=C/C(c2cc(Cl)c(Cl)c(Cl)c2)C(F)(F)F)cc1C(F)(F)F` (stereo partly drawn) [F27, N—((R)-1-((Allyloxy)(2,2,2-trifluoroethyl)amino)-1-oxopropan-2-yl)-4-((Z)-1,4,4,4-tetrafluoro-3-(3,4,5-trichlorophenyl)but-1-en-1-yl)-2-(trifluoromethyl)benzamide], the pest or weed control at 50 µg/cm2 in assay [1] and in assay [2] was 50 to 100% each time.

As to `O=C(NC1(C(=O)NCC(F)(F)F)CC1)c1ccc(/C(F)=C/C(c2cc(Cl)c(Cl)c(Cl)c2)C(F)(F)F)cc1Cl` (centres unmarked) [F28, (Z)-2-Chloro-4-(1,4,4,4-tetrafluoro-3-(3,4,5-trichlorophenyl)but-1-en-1-yl)-N-(1-((2,2,2-trifluoroethyl)carbamoyl)cyclopropyl)benzamide], the pest or weed control at 50 µg/cm2 in assay [1] and in assay [2] was 50 to 100% throughout.

With `C[C@@H](NC(=O)c1ccc(/C(F)=C/C(c2cc(Cl)c(Cl)c(Cl)c2)C(C)(F)F)cc1C(F)(F)F)C(=O)NCC(F)(F)F` (stereo partly drawn) [F29, N—((R)-1-Oxo-1-((2,2,2-trifluoroethyl)amino)propan-2-yl)-4-((Z)-1,4,4-trifluoro-3-(3,4,5-trichlorophenyl)pent-1-en-1-yl)-2-(trifluoromethyl)benzamide], the pest or weed control at 50 µg/cm2 in assay [1] and in assay [2] was 50 to 100% throughout.

As for `C[C@@H](NC(=O)c1ccc(/C(F)=C/C(c2cc(Cl)c(Cl)c(Cl)c2)C(F)(F)F)cc1C(F)(F)F)C(=O)NCC(F)F` (stereo partly drawn) [F30, N—((R)-1-((2,2-Difluoroethyl)amino)-1-oxopropan-2-yl)-4-((Z)-1,4,4,4-tetrafluoro-3-(3,4,5-trichlorophenyl)but-1-en-1-yl)-2-(trifluoromethyl)benzamide], the pest or weed control at 50 µg/cm2 in assay [1] and in assay [2] was 50 to 100% in each case.

For `C[C@@H](NC(=O)c1ccc(/C(F)=C/C(c2cc(Cl)c(Cl)c(Cl)c2)C(F)(F)F)cc1Br)C(=O)NCC(F)F` (stereo partly drawn) [F31, 2-Bromo-N—((R)-1-((2,2-difluoroethyl)amino)-1-oxopropan-2-yl)-4-((Z)-1,4,4,4-tetrafluoro-3-(3,4,5-trichlorophenyl)but-1-en-1-yl)benzamide], the pest or weed control at 50 µg/cm2 in assay [1] and in assay [2] was 50 to 100% throughout.

Regarding `C[C@@H](NC(=O)c1ccc(/C(F)=C/C(c2cc(Cl)c(Cl)c(Cl)c2)C(F)(F)F)cc1Cl)C(=O)NCC(F)F` (stereo partly drawn) [F32, 2-Chloro-N—((R)-1-((2,2-difluoroethyl)amino)-1-oxopropan-2-yl)-4-((Z)-1,4,4,4-tetrafluoro-3-(3,4,5-trichlorophenyl)but-1-en-1-yl)benzamide], the pest or weed control at 50 µg/cm2 in assay [1] and in assay [2] was 50 to 100% in each case.

For `CN(CC(F)(F)F)C(=O)CNC(=O)c1ccc(/C(F)=C/C(c2cc(Cl)c(Cl)c(Cl)c2)C(F)(F)F)cc1Cl` (centres unmarked) [F47, (Z)-2-Chloro-N-(2-(methyl(2,2,2-trifluoroethyl)amino)-2-oxoethyl)-4-(1,4,4,4-tetrafluoro-3-(3,4,5-trichlorophenyl)but-1-en-1-yl)benzamide], the pest or weed control at 50 µg/cm2 in assay [1] and in assay [2] was 50 to 100% each time.

Regarding `CN(CC(F)(F)F)C(=O)CNC(=O)c1ccc(/C(F)=C/C(c2cc(Cl)c(Cl)c(Cl)c2)C(F)(F)F)cc1Br` (centres unmarked) [F48, (Z)-2-Bromo-N-(2-(methyl(2,2,2-trifluoroethyl)amino)-2-oxoethyl)-4-(1,4,4,4-tetrafluoro-3-(3,4,5-trichlorophenyl)but-1-en-1-yl)benzamide], the pest or weed control at 50 µg/cm2 in assay [1] and in assay [2] was 50 to 100% each time.

As to `C[C@@H](NC(=O)c1ccc(/C(F)=C/C(c2cc(Cl)c(Cl)c(Cl)c2)C(F)(F)F)cc1Cl)C(=O)N(C)CC(F)(F)F` (stereo partly drawn) [F49, 2-Chloro-N—((R)-1-(methyl(2,2,2-trifluoroethyl)amino)-1-oxopropan-2-yl)-4-((Z)-1,4,4,4-tetrafluoro-3-(3,4,5-trichlorophenyl)but-1-en-1-yl)benzamide], the pest or weed control at 50 µg/cm2 in assay [1] and in assay [2] was 50 to 100% each time.

Turning to `C[C@@H](NC(=O)c1ccc(/C(F)=C/C(c2cc(Cl)c(Cl)c(Cl)c2)C(F)(F)F)cc1Br)C(=O)N(C)CC(F)(F)F` (stereo partly drawn) [F50, 2-Bromo-N—((R)-1-(methyl(2,2,2-trifluoroethyl)amino)-1-oxopropan-2-yl)-4-((Z)-1,4,4,4-tetrafluoro-3-(3,4,5-trichlorophenyl)but-1-en-1-yl)benzamide], the pest or weed control at 50 µg/cm2 in assay [1] and in assay [2] was 50 to 100% each time.

`CN(CC(F)(F)F)C(=O)CNC(=O)c1ccc(/C(F)=C/C(c2cc(Cl)c(Cl)c(Cl)c2)C(F)(F)F)cc1C(F)(F)F` (centres unmarked) [F51, (Z)—N-(2-(Methyl(2,2,2-trifluoroethyl)amino)-2-oxoethyl)-4-(1,4,4,4-tetrafluoro-3-(3,4,5-trichlorophenyl)but-1-en-1-yl)-2-(trifluoromethyl)benzamide]: the pest or weed control at 50 µg/cm2 in assay [1] and in assay [2] was 50 to 100% each time.

With `CC(C)(NC(=O)c1ccc(/C(F)=C/C(c2cc(Cl)c(Cl)c(Cl)c2)C(F)(F)F)cc1C(F)(F)F)C(=O)NCC(F)(F)F` (centres unmarked) [F54, (Z)—N-(2-Methyl-1-oxo-1-((2,2,2-trifluoroethyl)amino)propan-2-yl)-4-(1,4,4,4-tetrafluoro-3-(3,4,5-trichlorophenyl)but-1-en-1-yl)-2-(trifluoromethyl)benzamide], the pest or weed control at 50 µg/cm2 in assay [1] and in assay [2] was 50 to 100% in each case.

On to `C[C@@H](NC(=O)c1ccc(/C(F)=C/C(c2cc(Cl)c(Cl)c(Cl)c2)C(F)(F)F)cc1C(F)(F)F)C(=O)N(CC(F)(F)F)NC(=O)OC(C)(C)C` (stereo partly drawn) [F55, tert-Butyl 2-((2R)-2-(4-((Z)-1,4,4,4-tetrafluoro-3-(3,4,5-trichlorophenyl)but-1-en-1-yl)-2-(trifluoromethyl)benzamido)propanoyl)-2-(2,2,2-trifluoroethyl)hydrazinecarboxylate], for which the pest or weed control at 50 µg/cm2 in assay [1] and in assay [2] was 50 to 100% in each case.

As to `O=C(NC1(C(=O)CCC(F)(F)F)CC1)c1ccc(/C(F)=C/C(c2cc(Cl)c(Cl)c(Cl)c2)C(F)(F)F)cc1C(F)(F)F` (centres unmarked) [F56, (Z)-4-(1,4,4,4-Tetrafluoro-3-(3,4,5-trichlorophenyl)but-1-en-1-yl)-N-(1-(4,4,4-trifluorobutanoyl)cyclopropyl)-2-(trifluoromethyl)benzamide], the pest or weed control at 50 µg/cm2 in assay [1] and in assay [2] was 50 to 100% in each case.
